Source: publication PMC8247284 (Antiviral Research, 2021)

Tests used:
[1] = system: alpha- and beta-coronaviruses; assay: organism not typed; settings: read-out: EC50 values against the various coronaviruses
SARS-CoV-2 [2] = format: cell-based
HCoV-229E = assay: Confocal microscopy of dsRNA, HCoV-229E-infected Huh7 cells; format: cell-based; settings: dsRNA staining, 6 h
[3] = system: LC3-positive puncta (autophagy); assay: Confocal microscopy of LC3 in Huh7 cells; format: cell-based, human; settings: chloroquine 0.5, 5 and 50 μM, 6 h, infected and uninfected Huh7 cells
[4] = system: LC3 puncta (autophagy pathway); assay: High content analysis of cytoplasmic LC3 puncta in HEp-2 cells; format: cell-based, human; settings: 3 h incubation, relative to untreated control
SARS-CoV-2 [5] = assay: Confocal microscopy of dsRNA, SARS-CoV-2-infected Huh7 cells; format: cell-based; settings: chloroquine 5 μM, 6 h

Compound | EC50 [1] [µM] | other results
COc1cc(NC(C)CCCN)c2ncccc2c1 (stereo not drawn) [Primaquine, primaquine] | > 13 | –
C=C[C@H]1C[N@@]2CC[C@H]1C[C@@H]2[C@@H](O)c1ccnc2ccc(OC)cc12 [Quinidine, quinidine] | > 13 | –
N#C[C@@]1(c2ccc3c(N)ncnn23)O[C@H](CO)[C@@H](O)[C@H]1O [GS-441524] | – | log reduction of the viral copy number (SARS-CoV-2 [2]): 4.3 log
COc1cc(C)c2c(Oc3cccc(C(F)(F)F)c3)c(OC)cc(NC(C)CCCN)c2n1 (stereo not drawn) [Tafenoquine, tafenoquine] | > 13 | –
CCN(CC)CCCC(C)Nc1ccnc2cc(Cl)ccc12 (stereo not drawn) [Chloroquine, chloroquine] | 0.12 to 12 | concentration required to fully inhibit HCoV-229E replication (HCoV-229E): 50 µM; LC3-positive puncta [3]: dose-dependent increase; increase of the intensity of cytoplasmic LC3 puncta [4]: 6 fold; viral RNA synthesis (dsRNA staining) (SARS-CoV-2 [5]): completely blocked
C=C[C@H]1C[N@@]2CC[C@H]1C[C@H]2[C@H](O)c1ccnc2ccc(OC)cc12 [Quinine, quinine] | > 13 | –
CCN(CCO)CCCC(C)Nc1ccnc2cc(Cl)ccc12 (stereo not drawn) [Hydroxychloroquine, hydroxychloroquine] | 0.12 to 12 | increase of the intensity of cytoplasmic LC3 puncta [4]: 6 fold
